Values of other authors, collected in paper PMC8504815 (Clinical and Translational Science, 2021).

Tested on: basophils
Conditions: doses >=200 mg; not sustained beyond; cited from earlier work

## C[C@H]1CN(C2COC2)CCN1c1ccc(Nc2cc(-c3ccnc(N4CCn5c(cc6c5CC(C)(C)C6)C4=O)c3CO)cn(C)c2=O)nc1 [fenebrutinib]
  duration of more than 90% CD63 inhibition: ≤ 8 h
